The target in one assay is T1, BRD4 (BD1) (Homo sapiens, UniProt O60885).
T1 construct: Each member comprises two tandem bromodomains (BD1 and BD2) for recognizing the acetylated lysine residues
In words: BRD4 (BD1) bromodomain binding, HTRF. Particulars: 2 h incubation at r.t. On the technique in general: Time-resolved FRET reads energy transfer from a long-lived donor to a nearby acceptor.

Another assay deals with T2, BRD4 (BD2) (Homo sapiens, UniProt O60885).
T2 construct: Each member comprises two tandem bromodomains (BD1 and BD2) for recognizing the acetylated lysine residues
Description: BRD4 (BD2) bromodomain binding, HTRF. Particulars: 2 h incubation at r.t.

In a further assay the test system is MV-4-11 cells. In words: Inhibitory effect on MV-4-11 cells (CellTiter-Glo). Particulars: Homo sapiens, read-out: MV-4-11. Type of assay: cell-based. (ATP-based viability assays read luminescence as a measure of living cells.)
The mark [1] stands for this setting: MV4-11, 72 hours, CellTiter-Glo.

pIC50: −log10 of the molar value. Read-outs that look alike come from different tables or passages of the source.

The results in this text go back to patent US20190284192A1, “NITROGENOUS MACROCYCLIC COMPOUND, PREPARATION METHOD THEREFOR, PHARMACEUTICAL COMPOSITION AND APPLICATION THEREOF” (LUOXIN PHARMACEUTICAL (SHANGHAI) CO., LTD., priority 2016, published 2019).

Description for MV-4-11 cells: The 1st Day: Seed the Cells on the Plate
1. The cells were verified that they were in good conditions by observation under microscope;
2. The cells were transferred to a 15 mL centrifuge tube, after centrifuged at 1000 rpm for 5 min, the supernatant was discarded;
3. The complete medium (IMDM+10% FBS) was added, then blown and patted into single cell suspension, counted by Vi-cell cytometer, the cell suspension was adjusted to desired cell density by the complete medium.
4. The cells were inoculated into a 96 well plate, the cell number was 15000/well at 100 μL per well, 100 μL complete medium was added into the black control.
5. 37° C., 5% CO2 culture overnight.
The 2nd Day: Addition of the Drugs
1. 1000× Compound Plate Preparation
1.1. The test compound was prepared into 10 mM working solution by using DMSO. Then the STS was prepared into 2 mM working solution by using DMSO.
1.2. In the round bottom 96 wells plate, the column 2 of row A to H was added into 60 μL 10 mM test compound (or STS) working solution, columns 3-11 were added into 40 μL DMSO, 20 μL drug solution was pipetted from the column 2 to the column 3, blown and patted for a homogeneous mixture; then 20 μL solution was pipetted from the column 3 to the column 4, blown and patted for a homogeneous mixture, sequently, the drug was diluted by 3 times, 10 concentrations in total. The columns 1 and 12 were supplemented with 40 μL of DMSO.
2. Intermediate plate areparation
A sterile V-bottom 96 deep well plate was used and in each well, 495 μL FBS-free PRMI 1640 medium was added, then 5 μL of the diluted compound (or DMSO) in the 1000× compound plate was pipetted into corresponding position of the V-bottom 96 well plate, blown and patted evenly.
3.1. The cell plate was taken out from the incubator and was observed under microscope. The diluted compound or DMSO in the intermediate plate was added into the cell plate, 11 μL each well.
3.2. The cell was continued to be cultured at 37° C., 5% CO2 for 72 hours.
The 5th Day: CellTiter-Glo Detection of the Cell Activity
1. The CellTiter-Glo buffer and the reaction substrate were taken out from the refrigerator, after balanced to r.t., the buffer was poured into a brown bottle containing the substrate, the bottle was upside down to have the substrate powder sufficientaly dissolved.
2. The cell was observed under microscope; the cell plate was balanced to r.t.
3. The prepared CellTiter-Glo was added into the 96 well plate, at 100 μL/well.
4. The cell plate was placed on a shaker for 10 min, followed by standing at r.t. for 10 min.
5. A white seal film was attached to the bottom of the well plate, and the chemiluminescence signal of each well was detected by the Enspire microplate detector.
6. XLfit was used for data processing. Inhibition rate %=(d−c)/(d−b)×100, while d is the signal value of the DMSO treated group, c is the signal value of the compound treated group, b is signal value of the blank control that only containing medium and DMSO without cells. The data was fitted using the f(x)205[fit=(A+((B−A)/(1+((C/x)^∧D))))] equation in the XLfit software.

For `CCS(=O)(=O)Nc1cc2c(cc1F)C(c1ccc(F)cc1)=N[C@@H](C1CC1)c1cc(=O)n(C)cc1-2` [Compound 4084, (S)—N-(5-cyclopropyl-9-fluoro-7-(4-flurophenyl)-2-methyl-3-oxo-3,5-dihydro-2H-benzo[c]pyrido[3,4-e]azepin-10-yl)ethylsulfonamide], the pIC50 at BRD4 (BD1) was 8.70; on BRD4 (BD2), 9.00; in the assay with MV-4-11 cells (setting [1]) it was 9.30.
The like results for `CCS(=O)(=O)Cc1cc2c(cc1F)C(c1ccc(F)cc1)=N[C@@H](C)c1cc(=O)n(C)cc1-2` [Compound 4085, (S)-10-((ethylsulfonyl)methyl)-9-fluoro-7-(4-flurophenyl)-2,5-dimethyl-2,5-dihydro-3H-benzo[c]pyrido[3,4-e]azepin-3-ketone] were, in that order, 8.70, 9.00 and 8.40.
Consider `CCS(=O)(=O)Cc1ccc2c(c1)-c1cn(C)c(=O)cc1CN=C2c1ccc(F)cc1Cl` [Compound 4028, 7-(2-chloro-4-fluorophenyl)-10-((ethylsulfone)methyl)-2-methyl-2,5-dihydro-3H-benzo[c]pyrido[3,4-e]azepin-3-ketone], for which the pIC50 on BRD4 (BD1) is 7.66; on BRD4 (BD2), 8.70; in the assay with MV-4-11 cells (setting [1]), 6.79.
Taken in the same sequence, the figures for `CCS(=O)(=O)Cc1cc2c(cc1OC)C(c1ccc(F)cc1)=NCc1cc(=O)n(C)cc1-2` [Compound 4094, 10-((Ethylsulfonyl)methyl)-7-(4-flurophenyl)-9-methoxyl-2-methyl-2,5-dihydro-3H-benzo[c]pyrido[3,4-e]azepin-3-ketone] were 8.52, 8.70 and 7.31.
Consider `C[C@@H]1N=C(c2ccc(F)cc2)c2cc(Cl)c(NS(=O)(=O)C3CC3)cc2-c2cn(C)c(=O)cc21` [Compound 4080, (S)—N-(9-chloro-7-(4-flurophenyl)-2,5-dimethyl-3-oxo-3,5-dihydro-2H-benzo[c]pyrido[3,4-e]azepin-10-yl)cyclopropylsulfamide], for which the pIC50 on BRD4 (BD1) was 8.70; on BRD4 (BD2) it was 9.00; with MV-4-11 cells (setting [1]) it was 8.52.
Take `CCS(=O)(=O)Nc1cc2c(cc1Cl)C(c1ccc(F)cc1)=N[C@@H](C)c1cc(=O)n(C)cc1-2` [Compound 4058]: the pIC50 at BRD4 (BD1) is 9.00; at BRD4 (BD2), 9.00; with MV-4-11 cells (MV4-11, 72 h), 9.00.
In the case of `CC[S+]([O-])Cc1ccc2c(c1)-c1cn(C)c(=O)cc1[C@H](C)N=C2c1ccc(F)cc1` (stereo partly drawn) [Compound 4048, (5S)-10-((ethylsulfoxide)methyl)-7-(4-flurophenyl)-2,5-dimethyl-2,5-dihydro-3H-benzo[c]pyrido[3,4-e]azepin-3-ketone], the pIC50 is 8.70 at BRD4 (BD1), 8.70 at BRD4 (BD2) and 7.55 in the assay on MV-4-11 cells (setting [1]).
For the molecule `CCC(=O)Nc1cc2c(cc1F)C(c1ccc(F)cc1)=N[C@@H](C)c1cc(=O)n(C)cc1-2` [Compound 4083, (S)—N-(9-fluoro-7-(4-flurophenyl)-2,5-dimethyl-3-oxo-3,5-dihydro-2H-benzo[c]pyrido[3,4-e]azepin-10-yl)propanamide], the pIC50 is 8.10 on BRD4 (BD1), 8.40 on BRD4 (BD2) and 7.51 in the assay on MV-4-11 cells (setting [1]).
Take `CCS(=O)(=O)Nc1cc2c(cc1F)C(c1ccc(F)cc1)=NN(C)c1cc(=O)n(C)cc1-2` [Compound 4092, N-(9-fluoro-7-(4-flurophenyl)-2,5-dimethyl-3-oxo-3,5-dihydro-2H-benzo[e]pyrido[4,3-c][1,2]diazepin-10-yl)ethylsulfonamide]: the pIC50 at BRD4 (BD1) was 9.00; on BRD4 (BD2) it was 9.22; in the assay with MV-4-11 cells (setting [1]), 8.52.
Turning to `CCS(=O)(=O)Cc1cc2c(cc1Cl)C(c1ccc(F)cc1)=N[C@@H](C)c1cc(=O)n(C)cc1-2` [Compound 4086, (S)-9-chloro-10-((ethylsulfonyl)methyl)-7-(4-flurophenyl)-2,5-dimethyl-2,5-dihydro-3H-benzo[c]pyrido[3,4-e]azepin-3-ketone], the figures for the pIC50 on BRD4 (BD1), at BRD4 (BD2) and in the assay on MV-4-11 cells (setting [1]) were 8.70, 9.00 and 8.52, respectively.
Consider `CCS(=O)(=O)Cc1ccc2c(c1)-c1cn(C)c(=O)cc1[C@H](C)N=C2c1ccc(F)c(O)c1` [Compound 4064, (S)-10-((ethylsulfonyl)methyl)-7-(4-fluoro-3-hydroxylphenyl)-2,5-dimethyl-2,5-dihydro-3H-benzo[c]pyrido[3,4-e]azepin-3-ketone], for which the pIC50 on BRD4 (BD1) was 8.70; on BRD4 (BD2), 9.00; in the assay on MV-4-11 cells (setting [1]), 8.10.
The like results for `C[C@@H]1N=C(c2ccc(F)cc2)c2cc(Cl)c(N)cc2-c2cn(C)c(=O)cc21` [Compound 4069, (S)-10-amino-9-chloro-7-(4-flurophenyl)-2,5-dimethyl-2,5-dihydro-3H-benzo[c]pyrido[3,4-e]azepin-3-ketone] were, in that order, 8.40, 8.70 and 7.46.
With `CCS(=O)(=O)Nc1ccc2c(c1)-c1cn(C)c(=O)cc1CN=C2c1ccc(Cl)cc1` [Compound 4024, N-(7-(4-chlorophenyl)-2-methyl-3-oxo-3,5-dihydro-2H-benzo[c]pyrido[3,4-e]azepin-3-yl)ethanesulfonamide], the pIC50 was 8.70 on BRD4 (BD1), 9.00 at BRD4 (BD2) and 8.05 with MV-4-11 cells (setting [1]).
Taken in the same sequence, the figures for `Cn1cc2c(cc1=O)[C@H](CC(N)=O)N=C(c1ccc(Cl)cc1)c1ncccc1-2` [Compound 4029, (S)-2-(7-(4-chlorophenyl)-2-methyl-3-oxo-3,5-dihydro-2H-dipyrido[2,3-c:3′,4′-e]azepin-5-yl)acetamide] were 8.22, 8.70 and 7.16.
The like results for `CCS(=O)(=O)Cc1ccc2c(c1)-c1cn(C)c(=O)cc1C(COC)N=C2c1ccc(F)cc1` (stereo not drawn) [Compound 4082, 10-((ethylsulfonyl)methyl)-7-(4-flurophenyl)-5-(methoxylmethyl)-2-methyl-2,5-dihydro-3H-benzo[c]pyrido[3,4-e]azepin-3-ketone] were, in that order, 8.70, 9.00 and 7.96.
The like results for `CCS(=O)(=O)Cc1ccc2c(c1)-c1cn(C)c(=O)cc1[C@H](C(F)(F)F)N=C2c1ccc(F)cc1` [Compound 4040, (R)-10-((ethylsulfonyl)methyl)-7-(4-flurophenyl)-2-methyl-5-(trifluoromethyl)-2,5-dihydro-3H-benzo[c]pyrido[3,4-e]azepin-3-ketone] were, in that order, 8.30, 8.70 and 7.37.
For the molecule `CCNC(=O)C[C@@H]1N=C(c2ccc(F)cc2)c2ccc(CS(=O)(=O)CC)cc2-c2cn(C)c(=O)cc21` [Compound 4056, (S)—N-ethyl-2-(10-((ethylsulfonyl)methyl)-7-(4-flurophenyl)-2-methyl-3-oxo-3,5-dihydro-2H-benzo[c]pyrido[3,4-e]azepin-5-yl)acetamide], the pIC50 at BRD4 (BD1) was 9.00; at BRD4 (BD2), 9.00; in the assay on MV-4-11 cells (setting [1]), 7.49.
`C[C@@H]1N=C(c2ccc(F)cc2)c2ccc(CS(=O)(=O)C3CC3)cc2-c2cn(C)c(=O)cc21` [Compound 4045, (S)-7-(4-flurophenyl)-2,5-dimethyl-10-((cyclopropylsulfone)methyl)-2,5-dihydro-3H-benzo[c]pyrido[3,4-e]azepin-3-ketone]: the pIC50 was 9.00 on BRD4 (BD1), 9.00 at BRD4 (BD2) and 8.10 in the assay on MV-4-11 cells (setting [1]).
